According to patent publication US20260014232A1, “Pharmaceutical Composition of GLP-1 and GIP Receptor Dual Agonist and Use Thereof” (Jiangsu Hengrui Pharmaceuticals Co., Ltd., priority 2021, published 2026):
Starred links: 1 amine or outer side, 2 acyl side, 3 side chain; linkers in the order of their positions; H or OH if unused. Non-standard residues stand in square brackets, D forms with d. Residues, ends and D or L forms follow the SMILES beside them. Groups on a side chain read outwards from the residue. *: point of attachment. C20 diacid = O=C(O)CCCCCCCCCCCCCCCCCCC(=O)*; γGlu = O=C(O)[C@H](CCC(=O)[*:2])N[*:1]; AEEA = NCCOCCOCC(=O)O; Aib = CC(C)(N)C(=O)O

Assays:
[1] = Food intake of diet-induced-obesity (DIO) mice; type: in vivo, C57BL/6 mice; conditions: 100 nmol/kg
Description: (§1) High-fat food-induced-obesity male C57BL/6 mice (weighing 35-55 g, aged 10-12 weeks, purchased from Shanghai Jiesijie Laboratory Animal Co., Ltd.) were tested. […] According to the experimental design, the body weight of each mouse was measured and recorded on day 0, day 3, day 6, and so on to day 27, the average body weight of each group of mice was calculated, and body weight change curves were plotted by taking the body weight on the first day as the standard. At the end, the fat and other visceral organs of each part of the mice were taken out and weighed, and the viscera/brain ratio for fat in each part of each mouse was calculated. The effect of the drug on the fat was determined by comparing the change in the viscera/brain ratio for fat of different parts of each group of mice.
The food intake of mice in each group was measured daily during the experiment.

[2] = Viscera/brain ratio for fat mass in diet-induced-obesity mice; type: in vivo, C57BL/6 mice; conditions: DIO mice; for viscera/brain ratio for fat mass, Epididymal fat / viscera/brain ratio for fat mass, Inguinal fat / viscera/brain ratio for fat mass, Mesenteric fat / viscera/brain ratio for fat mass, Perirenal fat / viscera/brain ratio for fat mass, Scapular fat / viscera/brain ratio for fat mass, Subcutaneous fat: X ± s
Description: as §1

[3] = Glucose metabolism level of db/db mice (fasting and random blood glucose, glycated hemoglobin); type: in vivo, C57BL/KsJ-db/db mice; conditions: for Glycated hemoglobin: end of experiment day 28, mean ± SD
Description: Each administration group had 10 db/db mice. According to the experimental design, tail vein blood was collected by needle pricking on days 0, 7, 14, 21, and 28 and determined for fasting blood glucose levels with a glucometer and glucose dipsticks, and the mice were fasted 6 h prior to the blood collection at each time point. Tail vein blood was collected by needle pricking on days 3, 10, 17, 24, and 27 and randomly determined for blood glucose levels with a glucometer. Finally, at the end of the experiment on day 28, all the animals in the administration groups were subjected to 2-5% isoflurane inhalation anesthesia, and 100 μL of whole blood was collected through the orbit of each mouse using an EDTA-K2 anticoagulation tube and used for the determination of glycated hemoglobin.

[4] = 10 nmol/kg s.c., Day 0, mean ± SD
[5] = 30 nmol/kg s.c., Day 0, mean ± SD
[6] = 100 nmol/kg s.c., Day 0, mean ± SD

Work on `CC[C@H](C)[C@H](NC(=O)[C@H](CCCCN)NC(=O)[C@H](CCC(=O)O)NC(=O)[C@H](CCCCNC(=O)COCCOCCNC(=O)COCCOCCNC(=O)CC[C@H](NC(=O)CCCCCCCCCCCCCCCCCCC(=O)O)C(=O)O)NC(=O)[C@H](Cc1ccc(O)cc1)NC(=O)[C@@H](NC(=O)[C@H](CO)NC(=O)[C@H](Cc1ccc(O)cc1)NC(=O)[C@H](CC(=O)O)NC(=O)[C@H](CO)NC(=O)[C@@H](NC(=O)[C@H](Cc1ccccc1)NC(=O)[C@@H](NC(=O)CNC(=O)[C@H](CCC(=O)O)NC(=O)C(C)(C)NC(=O)[C@@H](N)Cc1ccc(O)cc1)[C@@H](C)O)[C@@H](C)O)[C@@H](C)CC)C(=O)N[C@@H](C)C(=O)N[C@@H](C)C(=O)N[C@@H](CCC(N)=O)C(=O)N[C@@H](CCC(=O)O)C(=O)N[C@@H](Cc1ccccc1)C(=O)N[C@H](C(=O)N[C@@H](CC(N)=O)C(=O)N[C@@H](Cc1c[nH]c2ccccc12)C(=O)N[C@@H](CC(C)C)C(=O)N[C@@H](CC(C)C)C(=O)N[C@@H](C)C(=O)NCC(=O)NCC(=O)N1CCC[C@H]1C(=O)N[C@@H](CO)C(=O)N[C@@H](CO)C(=O)NCC(=O)N[C@@H](C)C(=O)N1CCC[C@H]1C(=O)N1CCC[C@H]1C(=O)N1CCC[C@H]1C(=O)N[C@@H](CO)C(N)=O)C(C)C` [Compound 18#] (H-Y[Aib]EGTFTSDYSIYK([AEEA-AEEA-γGlu-C20 diacid])EKIAAQEFVNWLLAGGPSSGAPPPS-NH2) yielded a daily food intake ([1]; day 7) of 0.5 g, a daily food intake ([1]; day 8) of 0.7 g and a daily food intake ([1]; day 9) of 0.9 g. The daily food intake ([1]; day 10) was 0.9 g, the daily food intake ([1]; day 11) was 1.1 g and the daily food intake ([1]; day 12) was 2 g. For the same molecule, the daily food intake ([1]; day 13) was 1.3 g, the daily food intake ([1]; day 14) was 1.7 g and the daily food intake ([1]; day 15) was 2 g. It also gave a daily food intake ([1]; day 16) of 1 g, a daily food intake ([1]; day 17) of 1.6 g and a daily food intake ([1]; day 18) of 2 g. For the same molecule, the daily food intake ([1]; day 19) was 1.4 g, the daily food intake ([1]; day 20) was 1.8 g and the daily food intake ([1]; day 21) was 2.4 g. For the same molecule, the daily food intake ([1]; day 22) was 1.4 g, the daily food intake ([1]; day 23) was 2.1 g and the daily food intake ([1]; day 24) was 2.3 g. It also gave a daily food intake ([1]; day 25) of 1.5 g, a daily food intake ([1]; day 26) of 1.6 g and a daily food intake ([1]; day 27) of 2.8 g. The daily food intake ([1]; day 28) was 1.2 g, the “viscera/brain ratio for fat mass, Epididymal fat” value ([2]; 3 nmol/kg) was 254.6 ± 113.4 % and the “viscera/brain ratio for fat mass, Inguinal fat” value ([2]; 3 nmol/kg) was 281.5 ± 140.1 %. For the same molecule, the “viscera/brain ratio for fat mass, Mesenteric fat” value ([2]; 3 nmol/kg) was 84.8 ± 41.3 %, the “viscera/brain ratio for fat mass, Perirenal fat” value ([2]; 3 nmol/kg) was 159.2 ± 87.6 % and the “viscera/brain ratio for fat mass, Scapular fat” value ([2]; 3 nmol/kg) was 48 ± 15.3%. The “viscera/brain ratio for fat mass, Subcutaneous fat” value ([2]; 3 nmol/kg) was 129 ± 62 %, the “viscera/brain ratio for fat mass, Epididymal fat” value ([2]; 10 nmol/kg) was 211.7 ± 80.7 % and the “viscera/brain ratio for fat mass, Inguinal fat” value ([2]; 10 nmol/kg) was 194.4 ± 86.2 %. The “viscera/brain ratio for fat mass, Mesenteric fat” value ([2]; 10 nmol/kg) was 53.3 ± 14.6 %, the “viscera/brain ratio for fat mass, Perirenal fat” value ([2]; 10 nmol/kg) was 109.4 ± 57.1 % and the “viscera/brain ratio for fat mass, Scapular fat” value ([2]; 10 nmol/kg) was 42.5 ± 17%. The “viscera/brain ratio for fat mass, Subcutaneous fat” value ([2]; 10 nmol/kg) was 122 ± 73.2 %, the “viscera/brain ratio for fat mass, Epididymal fat” value ([2]; 100 nmol/kg) was 102.9 ± 32.2 % and the “viscera/brain ratio for fat mass, Inguinal fat” value ([2]; 100 nmol/kg) was 92 ± 34.5 %. The “viscera/brain ratio for fat mass, Mesenteric fat” value ([2]; 100 nmol/kg) was 27.4 ± 11.1 %, the “viscera/brain ratio for fat mass, Perirenal fat” value ([2]; 100 nmol/kg) was 46.6 ± 18.2 % and the “viscera/brain ratio for fat mass, Scapular fat” value ([2]; 100 nmol/kg) was 32.3 ± 7%. For the same molecule, the “viscera/brain ratio for fat mass, Subcutaneous fat” value ([2]; 100 nmol/kg) was 57.1 ± 21.2 %, the “content of fat of each part (except scapular fat) relative to placebo” value ([2]; all dose test groups) was “significantly reduced” and the “Concentration of fasting blood glucose” value [3, 4] was 14.77 ± 1.30 mmol/L. The “Concentration of random blood glucose” value [3, 4] was 20.42 ± 1.56 mmol/L, the “Concentration of fasting blood glucose” value ([3]; 10 nmol/kg s.c., Day 7, mean ± SD) was 6.05 ± 0.42 mmol/L and the “Concentration of random blood glucose” value ([3]; 10 nmol/kg s.c., Day 10, mean ± SD) was 20.66 ± 1.48 mmol/L. The “Concentration of fasting blood glucose” value ([3]; 10 nmol/kg s.c., Day 14, mean ± SD) was 6.30 ± 0.46 mmol/L, the “Concentration of random blood glucose” value ([3]; 10 nmol/kg s.c., Day 17, mean ± SD) was 18.91 ± 1.33 mmol/L and the “Concentration of fasting blood glucose” value ([3]; 10 nmol/kg s.c., Day 21, mean ± SD) was 7.89 ± 0.81 mmol/L. The “Concentration of random blood glucose” value ([3]; 10 nmol/kg s.c., Day 24, mean ± SD) was 21.17 ± 2.07 mmol/L, the “Concentration of fasting blood glucose” value ([3]; 10 nmol/kg s.c., Day 28, mean ± SD) was 9.41 ± 0.97 mmol/L and the Glycated hemoglobin ([3]; 10 nmol/kg s.c.) was 4.71 ± 0.23 %. For the same molecule, the “Concentration of fasting blood glucose” value [3, 5] was 14.13 ± 1.32 mmol/L, the “Concentration of random blood glucose” value [3, 5] was 16.73 ± 1.59 mmol/L and the “Concentration of fasting blood glucose” value ([3]; 30 nmol/kg s.c., Day 7, mean ± SD) was 6.21 ± 0.26 mmol/L. For the same molecule, the “Concentration of random blood glucose” value ([3]; 30 nmol/kg s.c., Day 10, mean ± SD) was 15.88 ± 1.86 mmol/L, the “Concentration of fasting blood glucose” value ([3]; 30 nmol/kg s.c., Day 14, mean ± SD) was 6.40 ± 0.57 mmol/L and the “Concentration of random blood glucose” value ([3]; 30 nmol/kg s.c., Day 17, mean ± SD) was 17.30 ± 1.17 mmol/L. The “Concentration of fasting blood glucose” value ([3]; 30 nmol/kg s.c., Day 21, mean ± SD) was 7.03 ± 0.52 mmol/L, the “Concentration of random blood glucose” value ([3]; 30 nmol/kg s.c., Day 24, mean ± SD) was 17.43 ± 1.92 mmol/L and the “Concentration of fasting blood glucose” value ([3]; 30 nmol/kg s.c., Day 28, mean ± SD) was 9.68 ± 1.03 mmol/L. The Glycated hemoglobin ([3]; 30 nmol/kg s.c.) was 4.53 ± 0.17 %, the “Concentration of fasting blood glucose” value [3, 6] was 14.67 ± 1.46 mmol/L and the “Concentration of random blood glucose” value [3, 6] was 9.11 ± 1.25 mmol/L. The “Concentration of fasting blood glucose” value ([3]; 100 nmol/kg s.c., Day 7, mean ± SD) was 5.85 ± 0.33 mmol/L, the “Concentration of random blood glucose” value ([3]; 100 nmol/kg s.c., Day 10, mean ± SD) was 12.34 ± 1.12 mmol/L and the “Concentration of fasting blood glucose” value ([3]; 100 nmol/kg s.c., Day 14, mean ± SD) was 6.25 ± 0.32 mmol/L. The “Concentration of random blood glucose” value ([3]; 100 nmol/kg s.c., Day 17, mean ± SD) was 11.89 ± 1.15 mmol/L, the “Concentration of fasting blood glucose” value ([3]; 100 nmol/kg s.c., Day 21, mean ± SD) was 6.13 ± 0.19 mmol/L and the “Concentration of random blood glucose” value ([3]; 100 nmol/kg s.c., Day 24, mean ± SD) was 11.51 ± 0.95 mmol/L. The “Concentration of fasting blood glucose” value ([3]; 100 nmol/kg s.c., Day 28, mean ± SD) was 7.89 ± 0.41 mmol/L, the Glycated hemoglobin ([3]; 100 nmol/kg s.c., listed as 18 #) was 3.78% and the Glycated hemoglobin ([3]; 100 nmol/kg s.c., listed as #18) was 3.78 ± 0.13 %.
